24 compounds from US8796259B2, “N3-heteroaryl substituted triazoles and N5-heteroaryl substituted triazoles useful as axl inhibitors” (Rigel Pharmaceuticals, Inc., priority 2006, dated 2014) can be followed below.

The experiment concerns the target T1, Axl (Homo sapiens, UniProt P30530).
T1 construct: endogenous in cells; host or cells: HeLa cells
T1 sequence (P30530 26-894): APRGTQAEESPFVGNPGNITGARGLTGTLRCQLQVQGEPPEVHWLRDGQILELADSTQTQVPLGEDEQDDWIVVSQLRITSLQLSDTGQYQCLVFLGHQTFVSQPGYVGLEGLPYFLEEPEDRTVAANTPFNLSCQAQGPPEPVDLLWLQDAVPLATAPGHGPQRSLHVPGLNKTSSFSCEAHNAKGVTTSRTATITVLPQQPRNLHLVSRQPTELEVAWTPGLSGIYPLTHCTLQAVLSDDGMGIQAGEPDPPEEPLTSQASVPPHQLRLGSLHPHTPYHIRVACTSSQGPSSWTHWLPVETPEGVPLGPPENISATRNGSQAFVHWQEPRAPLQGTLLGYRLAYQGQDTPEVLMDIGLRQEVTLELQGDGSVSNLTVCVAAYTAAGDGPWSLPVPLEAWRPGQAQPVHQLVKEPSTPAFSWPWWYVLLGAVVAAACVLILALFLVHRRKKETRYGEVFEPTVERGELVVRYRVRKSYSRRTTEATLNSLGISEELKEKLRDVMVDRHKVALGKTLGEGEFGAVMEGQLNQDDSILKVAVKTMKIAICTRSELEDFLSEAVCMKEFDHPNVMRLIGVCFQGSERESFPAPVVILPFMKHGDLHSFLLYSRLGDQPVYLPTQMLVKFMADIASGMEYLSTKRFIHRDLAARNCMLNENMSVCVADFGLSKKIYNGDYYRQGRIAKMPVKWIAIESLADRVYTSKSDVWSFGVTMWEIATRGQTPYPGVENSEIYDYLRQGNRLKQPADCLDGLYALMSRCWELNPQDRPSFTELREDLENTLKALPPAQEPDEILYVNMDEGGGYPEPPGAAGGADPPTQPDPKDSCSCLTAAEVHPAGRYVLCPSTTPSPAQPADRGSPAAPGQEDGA
The experiment is described as follows: Phospho-Akt in-cell Western assay (inhibition of Axl activity, Axl-antibody cross-linking stimulation). Format: cell-based. To be noted: Hela cells, phospho-Akt readout. The method, boiled down: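 HeLa cells on poly-L-lysine were starved 24 h in 0.5% FCS/DMEM with 500 ng/mL Axl/Fc, pre-treated with compound 1 h at 37 °C, then stimulated 5 min by cross-linked mouse anti-Axl/biotin anti-mouse antibody clusters. After formaldehyde fixation, phospho-Akt was detected by rabbit anti-phospho-Akt and HRP secondary with chemiluminescence read-out.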

The mark [1] stands for this setting: compounds of formula (Ia), Table 1.

One may read the IC50 as the midpoint of a concentration-inhibition curve. Higher therefore signals weaker potency. Under setting [1], `Cc1csc2c(-n3nc(Nc4cnc5c(c4)CC(C(=O)N4CCCC4)CC5)nc3N)nc(Cl)nc12` (stereo not drawn) [compound 20, 1-(2-chloro-7-methylthieno [3,2-d]pyrimidine-4-yl)-N^3-(6-(pyrrolidin-1ylcarbonyl)-5,6,7,8-tetrahydro-quinolin-3-yl)-1H-1,2,4-triazole-3,5-diamine] returned an IC50 of under 1000 nM.
The same measure, in the same setting: to `Cc1csc2c(-n3nc(Nc4ccc(N5CCC(CN6CCCC6)CC5)nc4)nc3N)nc(Cl)nc12` [compound 33, 1-(2-chloro-7-methylthieno [3,2-d]pyrimidin-4-yl)-N^3-(6-(4-(pyrrolidin-1-ylmethyl)piperidin-1-yl)pyridin-3-yl)-1H-1,2,4-triazole-3,5-diamine] belongs under 1000 nM; to `CN1CCc2ncc(Nc3nc(N)n(-c4nccc5ccccc45)n3)cc2C1` [compound 16, 1-(isoquinolin-1-yl)-N^3-(6-methyl-5,6,7,8-tetrahydro-1,6-naphthyridin-3-yl)-1H-1,2,4-triazole-3,5-diamine], under 1000 nM.
On the same count and under the same terms, to `Cc1csc2c(-n3nc(Nc4cnc5c(c4)CC(N(CC4CC4)CC4CC4)CC5)nc3N)nc(Cl)nc12` (stereo not drawn) [compound 104, 1-(2-chloro-7-methylthieno [3,2-d]pyrimidin-4-yl)-N^3-(6-bis-(cyclo-propylmethyl)amino-5,6,7,8-tetrahydro-quinolin-3-yl)-1H-1,2,4-triazole-3,5-diamine] belongs under 1000 nM; to `Cc1csc2c(-n3nc(Nc4cnc5c(c4)CC(NC4CCN(C)CC4)CC5)nc3N)ncnc12` (stereo not drawn) [compound 84, 1-(7-methylthieno [3,2-d]pyrimidin-4-yl)-N^3-(6-(1-methyl-piperidin-4-ylamino)-5,6,7,8-tetrahydro-quinolin-3-yl)-1H-1,2,4-triazole-3,5-diamine], under 1000 nM.
Still for that read-out and setting: to `COc1cc2ncnc(-n3nc(Nc4cnc(N5CCC(CN6CCCCC6)CC5)nc4)nc3N)c2cc1OC` [compound 63, 1-(6,7-dimethoxy-quinazoline-4-yl)-N^3-(2-(4-piperidin-1-ylmethyl-piperidin-1-yl)pyrimidin-5-yl)-1H-1,2,4-triazole-3,5-diamine] belongs 1000 to 10000 nM; to `CCN(CC)C1CCN(C/C=C/c2ccc(Nc3nc(N)n(-c4ncnc5c(C)csc45)n3)cn2)C1` (stereo not drawn) [compound 121, 1-(7-methylthieno [3,2-d]pyrimidin-4-yl)-N^3-(2-(3-(3-diethyl-amino-pyrrolidin-1-yl)propen-1-yl)pyridin-5-yl)-1H-1,2,4-triazole-3,5-diamine], under 1000 nM; to `Cc1csc2c(-n3nc(Nc4ccc(N5CCCN(C6CC7CCC6C7)CC5)nc4)nc3N)nc(Cl)nc12` (stereo not drawn) [compound 46, 1-(2-chloro-7-methylthieno [3,2-d]pyrimidin-4-yl)-N^3-(6-(4-(bicyclo[2.2.1]heptan-2-yl)-1,4-diazepan-1-yl)pyridin-3-yl)-1H-1,2,4-triazole-3,5-diamine], under 1000 nM.
Regarding `Cc1cc(Nc2nc(N)n(-c3nnc(C)c4ccsc34)n2)cnc1N1CCN([C@H]2C[C@@H]3CC[C@H]2C3)CC1` [compound 112, 1-(4-methylthieno [3,2-d]pyridazine-7-yl)-N^3-(2-(4-(1S,2S,4R)-bicyclo[2.2.1]heptan-2-ylpiperazin-1-yl)-3-methylpyridin-5-yl)-1H-1,2,4-triazole-3,5-diamine], the IC50 under setting [1] is over 20000 nM.
On the same count and under the same terms, as for `COc1cc2ncnc(-n3nc(Nc4ccc(N5CCC(CN6CCCC6)CC5)nc4)nc3N)c2cc1OC` [compound 34], the figure is under 1000 nM.
The same measure, in the same setting: to `Cc1csc2c(-n3nc(Nc4ccc(C=CCN5CCN(C6CCCC6)CC5)nc4)nc3N)ncnc12` [compound 125, 1-(7-methylthieno [3,2-d]pyrimidin-4-yl)-N^3-(2-(3-(4-cyclopentyl-piperazin-1-yl)propen-1-yl)pyridin-5-yl)-1H-1,2,4-triazole-3,5-diamine] belongs under 1000 nM; to `Cc1csc2c(-n3nc(Nc4cnc5c(c4)CC(NC4CCCC4)CC5)nc3N)nc(Cl)nc12` (stereo not drawn) [compound 70, 1-(2-chloro-7-methylthieno [3,2-d]pyrimidin-4-yl)-N^3-(6-cyclopentyl-amino-5,6,7,8-tetrahydro-quinolin-3-yl)-1H-1,2,4-triazole-3,5-diamine], under 1000 nM.
Still for that read-out and setting: as for `COc1cc2ncnc(-n3nc(Nc4ccc(N5CCN(C6CC7CCC6C7)CC5)nc4)nc3N)c2cc1OC` (stereo not drawn) [compound 6, 1-(6,7-dimethoxy-quinazoline-4-yl)-N^3-(6-(4-(bicyclo[2.2.1]heptan-2-yl)piperazin-1-yl)pyridin-3-yl)-1H-1,2,4-triazole-3,5-diamine], the figure is under 1000 nM; as for `Cc1csc2c(-n3nc(Nc4ccc(N5CCN(CC6CC6)[C@@H](C)C5)nc4)nc3N)ncnc12` [compound 116, 1-(7-methyl-thieno[3,2-d]pyrimidin-4-yl)-N^3-(2-(4-cyclo-propylmethyl-3-(S)-methyl-piperazin-1-yl)pyridin-5-yl)-1H-1,2,4-triazole-3,5-diamine], under 1000 nM.
In the case of `COc1cc2ncnc(-n3nc(Nc4ccc(N5CCN(CC6CC6)[C@@H](C)C5)nc4)nc3N)c2cc1OC` [compound 114, 1-(6,7-dimethoxy-quinazoline-4-yl)-N^3-(2-(4-cyclo-propylmethyl-3-(S)-methyl-piperazin-1-yl)pyridin-5-yl)-1H-1,2,4-triazole-3,5-diamine], the IC50 under setting [1] was under 1000 nM.
Same read-out and setting: to `COc1cc2ncnc(-n3nc(Nc4ccc5sc(C(=O)N6CCN(CCN(C)C)CC6)cc5c4)nc3N)c2cc1OC` [compound 40, 1-(6,7-dimethoxy-quinazoline-4-yl)-N^3-(2-(1-(4-(2-(dimethyl-amino)ethyl)piperazin-1-yl)oxomethyl)benzo[b]thio-phen-5-yl)-1H-1,2,4-triazole-3,5-diamine] belongs 1000 to 10000 nM.
The same measure, in the same setting: to `Cc1csc2c(-n3nc(Nc4ccc(N5CCC(N6CCN(C)CC6)CC5)nc4)nc3N)nc(Cl)nc12` [compound 22] belongs under 1000 nM.
In turn, `Cc1csc2c(-n3nc(N)nc3Nc3ccc(C=CCN4CCC(N5CCN(C)CC5)CC4)nc3)ncnc12` [compound 133, 1-(7-methylthieno[3,2-d]pyrimidin-4-yl)-N^5-(2-(3-(4-(4-methylpiperazin-1-yl)piperidin-1-yl)propen-1-yl)pyridin-5-yl)-1H-1,2,4-triazole-3,5-diamine] registered an IC50 (compounds of formula (Ib), Table 2) of under 1000 nM.
On to `Cc1csc2c(-n3nc(Nc4ccc(N5CCN(C)CC5)nc4)nc3N)nc(Cl)nc12` [compound 15, 1-(2-chloro-7-methylthieno [3,2-d]pyrimidine-4-yl)-N^3-(6-(4-methyl-piperazin-1-yl)pyridin-3-yl)-1H-1,2,4-triazole-3,5-diamine], for which the IC50 under setting [1] is under 1000 nM.
On the same count and under the same terms, to `COc1cc2ncnc(-n3nc(Nc4ccc(N5CCC(N6CCN(C)CC6)CC5)nc4)nc3N)c2cc1OC` [compound 8, 1-(6,7-dimethoxy-quinazoline-4-yl)-N^3-(6-(4-(4-methyl-piperazin-1-yl)piperidin-1-yl)pyridin-3-yl)-1H-1,2,4-triazole-3,5-diamine] belongs under 1000 nM; to `Cc1csc2c(-n3nc(Nc4cnc5c(c4)CN(C4CCN(C)CC4)CC5)nc3N)nc(Cl)nc12` [compound 86, 1-(2-chloro-7-methylthieno [3,2-d]pyrimidine-4-yl)-N^3-(6-(1-methyl-piperidin-4-yl)-5,6,7,8-tetrahydro-1,6-naphthyridin-3-yl)-1H-1,2,4-triazole-3,5-diamine], under 1000 nM.
The same measure, in the same setting: to `Cc1cc(Nc2nc(N)n(-c3nc(Cl)nc4c(C)csc34)n2)cnc1N1CCN(C2CC3CCC2C3)CC1` (stereo not drawn) [compound 71, 1-(2-chloro-7-methylthienò [3,2-d]pyrimidine-4-yl)-N^3-(5-methyl-6-(4-bicyclo[2.2.1]heptan-2-ylpiperazin-1-yl)pyridine-3-yl)-1H-1,2,4-triazole-3,5-diamine] belongs under 1000 nM; to `Nc1nc(Nc2ccc3c(c2)OCCO3)nn1-c1nccc2ccccc12` [compound 4, N^3-(2,3-dihydrobenzo [b][1,4]dioxin-6-yl)-1-(isoquinolin-1-yl)-1H-1,2,4-triazole-3,5-diamine], 1000 to 10000 nM; to `Cc1csc2c(-n3nc(Nc4cnc5c(c4)CN(C(=O)C4CCNCC4)CC5)nc3N)nc(Cl)nc12` [compound 87, 1-(2-chloro-7-methylthieno [3,2-d]pyrimidin-4-yl)-N^3-(6-(piperidin-4-ylcarbonyl)-5,6,7,8-tetrahydro-1,6-naphthyridin-3-yl)-1H-1,2,4-triazole-3,5-diamine], over 20000 nM.
